{"source": "patent US20250270170A1", "about": "“2,3-DIMETHOXY-5-METHYL-1,4-BENZOQUINONE ALKYL ALCOHOL DERIVATIVE AND USE THEREOF” (BEIJING ANJIANXI BIO-MEDICAL TECHNOLOGY CO., LTD., priority 2021, published 2025)", "key": {"[1]": {"test": "Example 8: body weight of ECA109 tumor-bearing mice", "assay_type": "in vivo, nude mice", "conditions": "DDP 5 mg/kg i.p. QW×4", "from_the_text": "The assay animals, calculation of tumor volume (TV), end of assay, data recording, calculation formula of tumor growth inhibition rate TGI (%), and statistical analysis method were the same as those in Example 3; the preparation of the administration formulation of the compound of formula (I) was the same as that in Example 5. […] The cells were pipetted with a pipette to disperse them evenly, and the cells were put into a 50-mL centrifuge tube, which was placed in an ice box. A 1-mL syringe was used to draw the cell suspension, which was injected subcutaneously into the axilla of the front right limb of a […]. Each animal was inoculated with 200 μL (1.0×10^7 cells/mouse) to establish an ECA109 transplanted tumor model in nude mice. After the inoculation, the animal status and tumor growth were regularly observed, and the tumor diameter was measured using an electronic vernier caliper. The data were input into an Excel spreadsheet to calculate the tumor volume. When the tumor volume reached 100 to 300 mm^3, animals in good health and with similar tumor volumes were selected and divided into groups using randomized block method. The day of grouping was regarded as the first day of the assay (D1). After the start of the assay, the tumor diameter was measured twice a week, the tumor volume was calculated, and the animal body weight was also weighed and recorded. [table]"}, "[2]": {"tested_on": "NCI-H460 cells", "test": "CCK-8 cell proliferation assay, NCI-H460", "assay_type": "cell-based", "conditions": "Homo sapiens", "experimental": "(1) Cells in the logarithmic growth phase were taken and digested to make a cell suspension. 20 μl of the cell suspension was taken with a pipette, and added to a CountStar disposable cell counting plate for cell counting, and the counting results were recorded. The cell concentration was adjusted to 30,000 to 40,000 cells/ml (note: different cells have different growth rates, so the number of cells in each well was slightly different).\n(2) A 96-well plate was taken. Since the wells in the outermost circle of the culture plate were easy to evaporate and dry, causing inaccurate volumes, and increasing errors, 100 μl of PBS was added to the wells in the outermost circle, which were not used as assay wells.\n(3) The adjusted cell suspension was added to the 96-well plate, with 100 μl in each well, resulting approximately 3000 to 4000 cells in each well. The plate was placed in a 37° C. incubator under the condition of 5% CO2 for cell culture, and the drug was added when the cells adhered to the wall.\n(4) Drug dilution. The concentration gradient was set as: 0 μM, 10 μM, 50 μM, 100 μM, and 200 μM, with 3 duplicates for each concentration. In addition, blank control wells containing only culture medium and drug without cells were also set.\n(5) The plate was incubated in the incubator for 24 h, 48 h and 72 h, respectively. After reaching the set time point, the 96-well plate was taken out from the incubator, and 10 μl of CCK-8 reagent was added to each well, taking care to avoid bubbles. The plate was shaked to mix evenly, and put back into the incubator to culture for another 2 hours.\n(6) To detect the absorbance, the 96-well plate was placed in a […], and the absorbance value (OD value) at 450 nm was detected. The data was recorded. Cell viability=(OD value of the assay well−OD value of the blank control well)/(OD value of the solvent control well−OD value of the blank control well)×100%.\n(7) The data was imported into GraphPad Prism5 for plotting. The IC50 values were calculated, and the curves were drawn."}, "[3]": {"tested_on": "A549 cells", "test": "Flow cytometry for apoptosis detection (Annexin V-FITC/PI), A549", "assay_type": "cell-based, human", "conditions": "72 h", "experimental": "(1) Cells were inoculated in a 6-well plate. When the cell growth density was appropriate, four concentrations (0 μM, 10 μM, 30 μM, and 90 μM) of the compound of formula (I) were added, and placed in an incubator at 37° C. with 5% CO2 to continue culturing for 72 hours.\n(2) After reaching the designated time point, the cell culture plate was taken out from the incubator, and placed in a biological safety cabinet. A 4 ml centrifuge tube was taken and marked. The supernatant in the 6-well plate was pipetted out and added to the corresponding 4 ml centrifuge tube. The cells were gently washed with PBS, and the PBS was added to the corresponding centrifuge tube. An appropriate amount of trypsin was added to each well to digest the cells. When the cells were digested to a moderate degree, the liquid in the centrifuge tube was added to the corresponding well. The cells were gently pipetted with a pipette to disperse the cells, and was pipetted back into the original centrifuge tube. The tube was immediately centrifuged at 1500 rpm for 5 minutes. Then, the supernatant was discarded and the precipitate was retained.\n(3) 2 ml of PBS was added to the centrifuge tube, which was centrifuged again at 1000 rpm for 5 minutes. The supernatant was discarded. This step was repeated again.\n(4) The cells were suspended with 1× Binding buffer, and the cell concentration was adjusted to approximately 1×10^6 cells/ml. 100 μl of cell suspension was added to the flow cytometry tube, and 5 μl of PI and 5 μl of Annexin V-FITC were added to each tube. The cells were gently vortexed, and incubated at room temperature in dark for 15 min.\n(5) 400 μl of 1× Binding buffer was further added to each tube, and the detection was performed on the flow cytometer (the detection was in need to be completed within 1 hour).\nWe used AnnexinV-FITC and PI double staining method for apoptosis staining. FL1 channel was selected for FITC, and FL2 channel was selected for PI. Flow cytometry analysis was used to detect cell apoptosis. Q1, Q2, Q3, and Q4 represented dead cells, late apoptotic cells, early apoptotic cells, and normal cells, respectively (FIG. 7). After treating A549 and NCI-H460 cells with the compound of formula (I) at different concentrations (0 μM, 10 μM, 30 μM, and 90 μM) for 72 h, the flow cytometry results are as follows. Table 1 and Table 2 show the proportions of dead cells, late apoptotic cells, early apoptotic cells, and normal cells after treating the A549 and NCI-H460 cells with different concentrations of the compound of formula (I), respectively."}}}
{"smiles": "N.N.[Cl][Pt][Cl]", "note": "[DDP, cisplatin]", "values": [{"measurement": "Mean animal body weight", "setting": "[1]; D1", "value": "20.8 ± 0.4", "unit": "g"}, {"measurement": "Mean animal body weight", "setting": "[1]; D5", "value": "20.3 ± 0.6", "unit": "g"}, {"measurement": "body weight loss rate", "setting": "[1]; D5", "value": "(2.1%)"}, {"measurement": "Mean animal body weight", "setting": "[1]; D8", "value": "20.5 ± 0.4", "unit": "g"}, {"measurement": "body weight loss rate", "setting": "[1]; D8", "value": "(1.4%)"}, {"measurement": "Mean animal body weight", "setting": "[1]; D12", "value": "19.4 ± 0.4", "unit": "g"}, {"measurement": "body weight loss rate", "setting": "[1]; D12", "value": "(6.7%)"}, {"measurement": "Mean animal body weight", "setting": "[1]; D15", "value": "19.9 ± 0.3", "unit": "g"}, {"measurement": "body weight loss rate", "setting": "[1]; D15", "value": "(4.3%)"}, {"measurement": "Mean animal body weight", "setting": "[1]; D19", "value": "19.0 ± 0.3", "unit": "g"}, {"measurement": "body weight loss rate", "setting": "[1]; D19", "value": "(8.5%)"}, {"measurement": "Mean animal body weight", "setting": "[1]; D22", "value": "19.5 ± 0.4", "unit": "g"}, {"measurement": "body weight loss rate", "setting": "[1]; D22", "value": "(5.9%)"}, {"measurement": "Mean animal body weight", "setting": "[1]; D26", "value": "17.7 ± 0.3", "unit": "g"}, {"measurement": "body weight loss rate", "setting": "[1]; D26", "value": "(15%)"}, {"measurement": "Mean animal body weight", "setting": "[1]; D29", "value": "17.9 ± 0.3", "unit": "g"}, {"measurement": "body weight loss rate", "setting": "[1]; D29", "value": "(14%)"}, {"measurement": "Mean animal body weight", "setting": "[1]; D33", "value": "18.7 ± 0.4", "unit": "g"}, {"measurement": "body weight loss rate", "setting": "[1]; D33", "value": "(10%)"}, {"measurement": "Mean animal body weight", "setting": "[1]; D36", "value": "18.7 ± 0.3", "unit": "g"}, {"measurement": "body weight loss rate", "setting": "[1]; D36", "value": "(10%)"}]}
{"smiles": "COC1=C(OC)C(=O)C(CCCCCCCCCCOC(=O)Cc2c(C)n(C(=O)c3ccc(Cl)cc3)c3ccc(OC)cc23)=C(C)C1=O", "note": "[compound of formula (I)]", "values": [{"measurement": "IC50", "setting": "[2]; 24 h", "value": "125.3 ± 1.01", "unit": "µM"}, {"measurement": "IC50", "setting": "[2]; 48 h", "value": "66.4 ± 0.87", "unit": "µM"}, {"measurement": "IC50", "setting": "[2]; 72 h", "value": "48.5 ± 1.12", "unit": "µM"}, {"measurement": "Q1 Gated % (dead cells)", "setting": "[3]; 10 μM", "value": "1.07 ± 0.51", "unit": "%"}, {"measurement": "Q2 Gated % (late apoptotic cells)", "setting": "[3]; 10 μM", "value": "2.57 ± 0.48", "unit": "%"}, {"measurement": "Q3 Gated % (early apoptotic cells)", "setting": "[3]; 10 μM", "value": "1.86 ± 0.37", "unit": "%"}, {"measurement": "Q4 Gated % (normal cells)", "setting": "[3]; 10 μM", "value": "94.5 ± 0.57", "unit": "%"}, {"measurement": "percentage of apoptosis (total apoptosis)", "setting": "[3]; 10 μM", "value": "4.43 ± 0.11"}, {"measurement": "Q1 Gated % (dead cells)", "setting": "[3]; 30 μM", "value": "1.34 ± 0.19", "unit": "%"}, {"measurement": "Q2 Gated % (late apoptotic cells)", "setting": "[3]; 30 μM", "value": "3.08 ± 0.16", "unit": "%"}, {"measurement": "Q3 Gated % (early apoptotic cells)", "setting": "[3]; 30 μM", "value": "2.58 ± 1.38", "unit": "%"}, {"measurement": "Q4 Gated % (normal cells)", "setting": "[3]; 30 μM", "value": "93.05 ± 1.34", "unit": "%"}, {"measurement": "percentage of apoptosis (total apoptosis)", "setting": "[3]; 30 μM", "value": "5.65 ± 1.54"}, {"measurement": "Q1 Gated % (dead cells)", "setting": "[3]; 90 μM", "value": "0.31 ± 0.14", "unit": "%"}, {"measurement": "Q2 Gated % (late apoptotic cells)", "setting": "[3]; 90 μM", "value": "20.9 ± 3.39", "unit": "%"}, {"measurement": "Q3 Gated % (early apoptotic cells)", "setting": "[3]; 90 μM", "value": "50.4 ± 1.41", "unit": "%"}, {"measurement": "Q4 Gated % (normal cells)", "setting": "[3]; 90 μM", "value": "28.4 ± 4.67", "unit": "%"}, {"measurement": "percentage of apoptosis (total apoptosis)", "setting": "[3]; 90 μM", "value": "71.3 ± 4.81"}]}
